This note sets out measurements from patent US10793568B2, “Hormone receptor modulators for treating metabolic conditions and disorders” (ARDELYX, INC., priority 2016, dated 2020).

Usually pEC50 stands for −log10 of the EC50, conventionally taken in molar units. Read a high pEC50 as a small EC50.

In test [1] the target is ligand binding domain of human FXR (Homo sapiens (Human), UniProt Q96RI1). Briefly: FXR ligand binding assay (LanthaScreen TR-FRET, SRC2-2 peptide recruitment). The note with it: for Emax: read-out: % Efficacy. In general terms: In TR-FRET formats the signal depends on donor and acceptor labels being close together.
For test [2], the target named is human Farnesoid X receptor ligand-binding domain/Gal4 DNA binding domain chimera (Homo sapiens (Human), UniProt Q96RI1). The test is described as follows: Cell-based assay of FXR activation (FXR-UAS-bla HEK 293T beta-lactamase reporter). The note with it: cellular FXR beta-lactamase reporter assay; for Emax: HEK-293T, extent of activation relative to GW4064, read-out: % Efficacy; for EC50: FXR-UAS-bla HEK 293T cells, 16 h, pEC50 = -log EC50. The procedure, abridged: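 Readout is cleavage of the CCF4 FRET substrate (409 nm excitation, blue 447 nm signal) by beta-lactamase, expressed under UAS control after a Gal4–human FXR LBD chimera is activated in HEK 293T cells. Compounds were added as 3-fold dilutions for 16 h at 37 °C in 2% charcoal-stripped FBS medium. Curves were fit to a 3-parameter logistic equation to give pEC50, with % activation relative to GW4064.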
(Reporter assays use an easily measured gene product as a stand-in for the process of interest.)

Where [3] appears, read: -log EC50, concentration required to produce 50% activation.
The mark [4] stands for this setting: extent of activation relative to GW4064.

SMILES strings stand for the structures. Like-named read-outs stand apart in the source and are kept apart here. Bounds are passed on as bounds.

ligand binding domain of human FXR, sequence (Q96RI1 262-486): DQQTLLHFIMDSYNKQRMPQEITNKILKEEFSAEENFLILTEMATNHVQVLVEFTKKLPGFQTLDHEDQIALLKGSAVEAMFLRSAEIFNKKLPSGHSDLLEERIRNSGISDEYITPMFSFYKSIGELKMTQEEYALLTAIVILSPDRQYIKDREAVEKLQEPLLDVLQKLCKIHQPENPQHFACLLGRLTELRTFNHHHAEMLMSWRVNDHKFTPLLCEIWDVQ
human Farnesoid X receptor ligand-binding domain/Gal4 DNA binding domain chimera, sequence (Q96RI1 262-486, change not shown): as the sequence (Q96RI1 262-486) above
human Farnesoid X receptor ligand-binding domain/Gal4 DNA binding domain chimera, sequence (P04386 1-147 partner): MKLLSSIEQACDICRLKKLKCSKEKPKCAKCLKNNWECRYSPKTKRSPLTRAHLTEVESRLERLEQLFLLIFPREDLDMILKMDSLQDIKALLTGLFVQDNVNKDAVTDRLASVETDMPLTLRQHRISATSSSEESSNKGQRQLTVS

In test [1] (setting [3]), `O=C(NS(=O)(=O)C1CCCCC1)c1ccc(N2C[C@@H]3C[C@H]2C[C@H]3OCc2c(-c3c(Cl)cccc3Cl)noc2C2CC2)cc1` [Compound I-181, N-(cyclohexanesulfonyl)-4-[(1S,4S,5R)-5-{[5-cyclopropyl-3-(2,6-dichlorophenyl)-1,2-oxazol-4-yl]methoxy}-2-azabicyclo[2.2.1]heptan-2-yl]benzamide] showed a pEC50 of 8.8. Further, the Emax in test [1] turned out to be 166%. In test [2], the Emax came out at 110% and the EC50 is 0.0631 nM.

`O=C(NS(=O)(=O)C1CC1)c1ccc(N2C[C@@H]3C[C@H]2C[C@H]3OCc2c(-c3c(Cl)cccc3Cl)noc2C2CC2)c(F)c1` [Compound I-62, N-(cyclopropanesulfonyl)-4-[(1S,4S,5R)-5-{[5-cyclopropyl-3-(2,6-dichlorophenyl)-1,2-oxazol-4-yl]methoxy}-2-azabicyclo[2.2.1]heptan-2-yl]-3-fluorobenzamide] had a pEC50 in test [1] (setting [3]) of 7.9. Moreover, in test [1] (setting [4]), the Emax amounted to 188%. In test [2], the Emax was 112% and the EC50 was 0.158 nM.

With `O=C(O)c1cc(O[C@@H]2CCOC2)c2nc(N3C[C@@H]4C[C@H]3C[C@H]4OCc3c(-c4c(Cl)cccc4Cl)noc3C3CC3)sc2c1` [Compound I-261, 2-[(1S,4S,5R)-5-{[5-cyclopropyl-3-(2,6-dichlorophenyl)-1,2-oxazol-4-yl]methoxy}-2-azabicyclo[2.2.1]heptan-2-yl]-4-[(3R)-oxolan-3-yloxy]-1,3-benzothiazole-6-carboxylic Acid], in test [1] (setting [3]), the pEC50 came out at 8.6. The Emax is 161% in test [1] (setting [4]) and 110% in test [2]. This compound also had an EC50 in test [2] of 0.398 nM.

`CCCS(=O)(=O)NC(=O)c1cc(F)c2nc(N3C[C@@H]4C[C@H]3C[C@H]4OC(=O)c3c(-c4c(Cl)cccc4Cl)noc3C3CC3)sc2c1` [Compound I-32, (1S,4S,5R)-2-{4-fluoro-6-[(propane-1-sulfonyl)carbamoyl]-1,3-benzothiazol-2-yl}-2-azabicyclo[2.2.1]heptan-5-yl 5-cyclopropyl-3-(2,6-dichlorophenyl)-1,2-oxazole-4-carboxylate] returned a pEC50 in test [1] (setting [3]) of 7.6. Besides, the figures for the Emax in test [1] (setting [4]) and in test [2] were 148% and 110%, respectively. In test [2], this compound showed an EC50 of 126 nM.

Take `N#Cc1cc(N2C[C@@H]3C[C@H]2C[C@H]3OCc2c(-c3c(Cl)cccc3Cl)noc2C2(F)CC2)ccc1C(=O)O` [Compound I-123, 2-cyano-4-[(1S,4S,5R)-5-{[3-(2,6-dichlorophenyl)-5-(1-fluorocyclopropyl)-1,2-oxazol-4-yl]methoxy}-2-azabicyclo[2.2.1]heptan-2-yl]benzoic Acid]: the pEC50 in test [1] (setting [3]) worked out at 8.6. Moreover, the Emax in test [1] (setting [4]) was 160%. Moreover, in test [2], the Emax came out at 99% and the EC50 is 0.501 nM.

In test [1] (setting [3]), `O=C(O)c1ccc(N2C(=O)[C@@H]3C[C@H]2C[C@H]3OCc2c(-c3c(Cl)cccc3Cl)noc2C2CC2)c(F)c1` [Compound I-315, 4-[(1S,4R,5R)-5-{[5-cyclopropyl-3-(2,6-dichlorophenyl)-1,2-oxazol-4-yl]methoxy}-3-oxo-2-azabicyclo[2.2.1]heptan-2-yl]-3-fluorobenzoic Acid] came in with a pEC50 of 7.4. Further, the Emax in test [1] (setting [4]) came to 157%. In test [2], the Emax was 106% and the EC50 is 25.1 nM.

`O=C(O)c1cc(F)c2nc(N3C[C@H]4C[C@@H]3C[C@H]4OCc3c(-c4c(Cl)cccc4Cl)noc3C3CC3)sc2c1` [Compound I-41, 2-[(1R,4R,5R)-5-{[5-cyclopropyl-3-(2,6-dichlorophenyl)-1,2-oxazol-4-yl]methoxy}-2-azabicyclo[2.2.1]heptan-2-yl]-4-fluoro-1,3-benzothiazole-6-carboxylic Acid] returned a pEC50 in test [1] (setting [3]) of more than 4.5. In test [2], the Emax worked out at 40% and the EC50 was 2510 nM.

In test [1] (setting [3]), `O=C(NS(=O)(=O)C1CC1)c1ccc(N2C(=O)[C@@H]3C[C@H]2C[C@H]3OCc2c(-c3c(Cl)cccc3Cl)noc2C2CC2)cc1` [Compound I-337, 4-((1S,4R,5R)-5-((5-cyclopropyl-3-(2,6-dichlorophenyl)isoxazol-4-yl)methoxy)-3-oxo-2-azabicyclo[2.2.1]heptan-2-yl)-N-(cyclopropylsulfonyl)benzamide] registered a pEC50 of 8.6. Moreover, in test [1] (setting [4]), the Emax turned out to be 174%. Further, in test [2], the Emax turned out to be 110% and the EC50 is 2 nM.

In test [1] (setting [3]), `O=c1[nH]c2cc(N3C[C@@H]4C[C@H]3C[C@H]4OCc3c(-c4c(Cl)cccc4Cl)noc3C3CC3)ccc2o1` [Compound I-140, 5-[(1S,4S,5R)-5-{[5-cyclopropyl-3-(2,6-dichlorophenyl)-1,2-oxazol-4-yl]methoxy}-2-azabicyclo[2.2.1]heptan-2-yl]-2,3-dihydro-1,3-benzoxazol-2-one] registered a pEC50 of 9.1. Further, in test [1] (setting [4]), the Emax came out at 142%. Besides, in test [2], the Emax came to 121% and the EC50 was 20 nM.

As for `O=C(CCc1ccc(N2C[C@@H]3C[C@H]2C[C@H]3OCc2c(-c3c(F)cccc3Cl)noc2C2CC2)c(F)c1)NS(=O)(=O)C1CCOCC1` [Compound I-235, 3-{4-[(1S,4S,5R)-5-{[3-(2-chloro-6-fluorophenyl)-5-cyclopropyl-1,2-oxazol-4-yl]methoxy}-2-azabicyclo[2.2.1]heptan-2-yl]-3-fluorophenyl}-N-(oxane-4-sulfonyl)propanamide], in test [1] (setting [3]), the negative-log EC50 (pEC50) turned out to be 8.2. Besides, the Emax in test [1] (setting [4]) amounted to 176%; in test [2], 94%. In addition, the EC50 in test [2] is 3.98 nM.

Compound `COc1ccc(-c2noc(C3CC3)c2CO[C@@H]2C[C@@H]3C[C@H]2CN3c2nc3c(F)cc(C(=O)O)cc3s2)cc1` [Compound I-290, 2-((1S,4S,5R)-5-((5-cyclopropyl-3-(4-methoxyphenyl)isoxazol-4-yl)methoxy)-2-azabicyclo[2.2.1]heptan-2-yl)-4-fluorobenzo[d]thiazole-6-carboxylic acid] returned a negative logarithm of the EC50 (pEC50) in test [1] (setting [3]) of more than 4.5. In test [2], this compound gave an EC50 of less than 31.6 nM.

Compound `O=C(O)c1ccc(N2C[C@@H]3C[C@H]2C[C@H]3OCc2c(-c3c(F)cccc3Cl)noc2C2CC2)cc1` [Compound I-118, 4-[(1S,4S,5R)-5-{[3-(2-chloro-6-fluorophenyl)-5-cyclopropyl-1,2-oxazol-4-yl]methoxy}-2-azabicyclo[2.2.1]heptan-2-yl]benzoic Acid] gave a negative-log EC50 (pEC50) in test [1] (setting [3]) of 8.6. Further, the Emax amounted to 145% in test [1] (setting [4]) and 108% in test [2]. In test [2], this compound gave an EC50 of 7.94 nM.

The compound `O=C(NS(=O)(=O)[C@@H]1CCC[C@H]1O)c1ccc(N2C(=O)[C@@H]3C[C@H]2C[C@H]3OCc2c(-c3c(Cl)cccc3Cl)noc2C2CC2)cc1` [Compound I-344, 4-[(1S,4R,5R)-5-{[5-cyclopropyl-3-(2,6-dichlorophenyl)-1,2-oxazol-4-yl]methoxy}-3-oxo-2-azabicyclo[2.2.1]heptan-2-yl]-N-{[(1R,2R)-2-hydroxycyclopentyl]sulfonyl}benzamide] registered a pEC50 in test [1] (setting [3]) of 8.4. The Emax in test [1] (setting [4]) was 203%. Besides, in test [2], the Emax came out at 132% and the EC50 was 1.58 nM.

For the compound `Fc1cc(-c2nn[nH]n2)ccc1N1C[C@@H]2C[C@H]1C[C@H]2OCc1c(-c2c(Cl)cccc2Cl)noc1C1CC1` [Compound I-134, (1S,4S,5R)-5-{[5-cyclopropyl-3-(2,6-dichlorophenyl)-1,2-oxazol-4-yl]methoxy}-2-[2-fluoro-4-(2H-1,2,3,4-tetrazol-5-yl)phenyl]-2-azabicyclo[2.2.1]heptane], the pEC50 in test [1] (setting [3]) was 8.2. Besides, the Emax in test [1] (setting [4]) was 156%; in test [2] it was 104%. Besides, the EC50 in test [2] was 0.794 nM.

Regarding `O=C(O)CCc1ccc(N2C(=O)[C@@H]3C[C@H]2C[C@H]3OCc2c(-c3c(Cl)cccc3Cl)noc2C2CC2)cc1` [Compound I-303, 3-{4-[(1S,4R,5R)-5-{[5-cyclopropyl-3-(2,6-dichlorophenyl)-1,2-oxazol-4-yl]methoxy}-3-oxo-2-azabicyclo[2.2.1]heptan-2-yl]phenyl}propanoic Acid], the pEC50 in test [1] (setting [3]) is given as 7.4. Further, the Emax in test [1] (setting [4]) was 132%. In test [2], the Emax amounted to 98% and the EC50 was 6.31 nM.

With `Cc1cc(C(=O)O)cc2sc(N3C[C@@H]4C[C@H]3C[C@H]4OCc3c(-c4c(F)cccc4Cl)noc3C3CC3)nc12` [Compound I-262, 2-[(1S,4S,5R)-5-{[3-(2-chloro-6-fluorophenyl)-5-cyclopropyl-1,2-oxazol-4-yl]methoxy}-2-azabicyclo[2.2.1]heptan-2-yl]-4-methyl-1,3-benzothiazole-6-carboxylic Acid], in test [1] (setting [3]), the negative logarithm of the EC50 (pEC50) was found to be 8.6. Besides, the Emax in test [1] (setting [4]) stood at 144%; in test [2] it was 114%. The EC50 in test [2] is 2 nM.

Turning to `O=C(O)c1cc(OC(F)(F)F)c2nc(N3C[C@@H]4C[C@H]3C[C@H]4OCc3c(C4CCCCC4)noc3C3CC3)sc2c1` [Compound I-22, 2-[(1S,4S,5R)-5-[(3-cyclohexyl-5-cyclopropyl-1,2-oxazol-4-yl)methoxy]-2-azabicyclo[2.2.1]heptan-2-yl]-4-(trifluoromethoxy)-1,3-benzothiazole-6-carboxylic Acid], the EC50 in test [1] (setting [3]) is 316 nM; in test [2], 126 nM. For the same compound, the values for the Emax in test [1] (setting [4]) and in test [2] were 85% and 113%, respectively.

The compound `O=C(O)c1cc(OC2CC2)c2nc(N3C[C@@H]4C[C@H]3C[C@H]4OCc3c(-c4c(Cl)cccc4Cl)noc3C3CC3)sc2c1` [Compound I-259, 4-cyclopropoxy-2-[(1S,4S,5R)-5-{[5-cyclopropyl-3-(2,6-dichlorophenyl)-1,2-oxazol-4-yl]methoxy}-2-azabicyclo[2.2.1]heptan-2-yl]-1,3-benzothiazole-6-carboxylic Acid] gave a pEC50 in test [1] (setting [3]) of 8.5. Besides, in test [1] (setting [4]), the Emax was 124%. Besides, in test [2], the Emax was found to be 114% and the EC50 is 0.1 nM.
